Where two headings read alike, the source gives them in different places.
How the values were obtained:
[1] = target: T1, CDK12 (nuclear staining in CAL-120 cells) (Homo sapiens, UniProt Q9NYV4); test: CDK12 nuclear protein level: immunofluorescence/high content analysis (CAL-120); type: cell-based; conditions: for DC50: CAL-120 cells, 24 h, immunofluorescence, 50% reduction of nuclear CDK12 staining intensity, median, read-out: CDK12 degradation IF, DC50- [mol/l] (median); for (IC50 CDK12 high ATP) to (Degradation DC50 CDK12) ratio: ratio of IC50 CDK12 high ATP kinase assay to DC50 CDK12 degradation (IF, CAL-120)
T1 construct: endogenous in cells; host or cells: CAL-120 human breast cancer cells (DSMZ ACC 459)
T1 sequence (Q9NYV4 whole entry): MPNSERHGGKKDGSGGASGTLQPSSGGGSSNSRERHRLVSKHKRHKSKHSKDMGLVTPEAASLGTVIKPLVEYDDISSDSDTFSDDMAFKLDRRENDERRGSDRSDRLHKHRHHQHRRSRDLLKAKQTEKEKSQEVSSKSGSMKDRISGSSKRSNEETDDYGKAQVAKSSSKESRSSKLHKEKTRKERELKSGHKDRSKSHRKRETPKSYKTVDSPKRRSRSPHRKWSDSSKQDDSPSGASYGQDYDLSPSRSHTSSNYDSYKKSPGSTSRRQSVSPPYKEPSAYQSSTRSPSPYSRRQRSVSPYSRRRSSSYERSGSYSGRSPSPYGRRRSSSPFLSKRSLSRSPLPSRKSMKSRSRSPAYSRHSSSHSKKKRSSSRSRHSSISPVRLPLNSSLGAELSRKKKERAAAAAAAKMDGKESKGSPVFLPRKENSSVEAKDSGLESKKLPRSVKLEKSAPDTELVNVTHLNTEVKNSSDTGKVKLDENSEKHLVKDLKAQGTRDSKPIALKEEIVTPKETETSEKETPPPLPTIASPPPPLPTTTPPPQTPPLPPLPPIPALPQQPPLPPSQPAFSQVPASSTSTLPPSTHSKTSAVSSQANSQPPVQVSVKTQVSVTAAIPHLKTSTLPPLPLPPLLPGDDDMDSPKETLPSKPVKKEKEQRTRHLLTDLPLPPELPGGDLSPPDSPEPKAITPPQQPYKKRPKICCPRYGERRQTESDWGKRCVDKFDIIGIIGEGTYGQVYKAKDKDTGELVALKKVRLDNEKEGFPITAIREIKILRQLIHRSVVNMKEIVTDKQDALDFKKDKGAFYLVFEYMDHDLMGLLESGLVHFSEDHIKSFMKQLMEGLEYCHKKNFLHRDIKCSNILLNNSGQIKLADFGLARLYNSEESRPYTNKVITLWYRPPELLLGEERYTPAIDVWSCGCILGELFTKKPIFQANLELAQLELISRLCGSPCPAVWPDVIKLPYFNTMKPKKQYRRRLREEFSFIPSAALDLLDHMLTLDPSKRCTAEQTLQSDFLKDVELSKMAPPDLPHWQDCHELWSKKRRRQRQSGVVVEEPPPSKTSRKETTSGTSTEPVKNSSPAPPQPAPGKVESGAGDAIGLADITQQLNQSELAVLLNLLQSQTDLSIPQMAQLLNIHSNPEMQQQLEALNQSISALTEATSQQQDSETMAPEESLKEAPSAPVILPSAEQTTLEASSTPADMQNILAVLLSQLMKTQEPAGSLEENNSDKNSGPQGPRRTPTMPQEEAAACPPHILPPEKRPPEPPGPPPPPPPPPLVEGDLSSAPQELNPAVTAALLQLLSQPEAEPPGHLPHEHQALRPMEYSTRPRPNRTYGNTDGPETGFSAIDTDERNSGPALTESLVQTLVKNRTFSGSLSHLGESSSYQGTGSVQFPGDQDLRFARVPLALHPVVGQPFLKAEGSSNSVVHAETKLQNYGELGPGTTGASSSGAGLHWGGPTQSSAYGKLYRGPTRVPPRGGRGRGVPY
T1 sequence (O75909 whole entry partner): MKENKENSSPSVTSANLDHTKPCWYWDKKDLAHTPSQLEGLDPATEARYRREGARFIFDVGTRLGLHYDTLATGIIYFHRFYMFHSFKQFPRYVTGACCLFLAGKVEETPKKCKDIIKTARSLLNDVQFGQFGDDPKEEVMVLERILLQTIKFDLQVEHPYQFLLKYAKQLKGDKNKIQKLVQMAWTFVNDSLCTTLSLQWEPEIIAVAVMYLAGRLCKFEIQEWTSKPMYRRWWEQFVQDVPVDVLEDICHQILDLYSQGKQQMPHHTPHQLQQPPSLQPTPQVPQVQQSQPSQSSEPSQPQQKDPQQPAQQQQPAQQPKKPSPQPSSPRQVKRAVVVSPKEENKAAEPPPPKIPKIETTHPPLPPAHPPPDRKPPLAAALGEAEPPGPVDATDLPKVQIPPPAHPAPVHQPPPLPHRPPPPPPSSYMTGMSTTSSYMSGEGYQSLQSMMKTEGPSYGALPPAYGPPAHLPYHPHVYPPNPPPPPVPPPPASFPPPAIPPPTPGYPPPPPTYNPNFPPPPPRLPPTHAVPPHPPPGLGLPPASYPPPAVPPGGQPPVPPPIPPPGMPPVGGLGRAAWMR
Outline: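 CAL-120 cells were treated with compound for 24 h at 37 °C, fixed with PFA and immunostained for CDK12. Nuclear CDK12 intensity was quantified by automated image analysis and normalized to DMSO and control. DC50 is the concentration giving 50% reduction of nuclear staining.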

[2] = tested on: BRCA1 mRNA expression in MDA-MB-231 cells; test: qRT-PCR assay: BRCA1 mRNA expression in MDA-MB-231; type: cell-based, human; conditions: median, read-out: RTqPCR-MDA-MB-231, IC50, BRCA1 (median)
Outline: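 GAPDH-normalised RT-qPCR measures the transcript after 24 h continuous compound treatment of cells seeded at 200,000/well one day earlier.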

[3] = tested on: CAL-120, human breast adenocarcinoma cells; test: Proliferation assay CAL-120 (crystal violet, 4 days); type: cell-based; conditions: CAL-120 cells, median, read-out: Prolif-CAL-120, IC50-[mol/l] (median)
Outline: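 Following a 24 h attachment in 10% fetal calf serum medium, cells receive test substance over 0.01-10 µmol/L for 4 days. Dye retained by fixed cells is eluted and read at 595 nm; cell number change is referenced to day-0 and untreated wells.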

[4] = Homo sapiens, MDA-MB-231, Inhibition of BRCA1 mRNA expression in MDA-MB-231 cells

DC50 [1] | (IC50 CDK12 high ATP) to (Degradation DC50 CDK12) ratio [1] | IC50 [2, 4] | IC50 ([3]; Homo sapiens, CAL-120, 96 h) | SMILES | IC50 ([2]; Inhibition of BRCA1 mRNA expression in MDA-MB-231 cells) | IC50 [3]
5.79 nM | 859 | 4.01 nM | 11.4 nM | Brc1cnn2c(NCc3nc4ccccc4[nH]3)nc(N3C[C@H]4CC[C@@H]3CO4)nc12 (single isomer, unassigned) [Example 383, N-[(1H-benzimidazol-2-yl)methyl]-8-bromo-2-{[1R or S-(1R*,4R*)]-2-oxa-5-azabicyclo[2.2.2]octan-5-yl}pyrazolo[1,5-a][1,3,5]triazin-4-amine] | – | –
58.4 nM | 55 | 74.4 nM | – | CCNc1nc(NCc2nc(-c3ccc(C)cc3)c[nH]2)n2ncc(Br)c2n1 [Example 26, 8-bromo-N^2-ethyl-N^4-{[4-(4-methylphenyl)-1H-imidazol-2-yl]methyl}pyrazolo[1,5-a][1,3,5]triazine-2,4-diamine] | – | –
128 nM | 27 | 165 nM | – | Cc1[nH]c(CNc2nc(N3CCOCC3)nc3c(Br)cnn23)nc1-c1ccccc1 [Example 27, 8-bromo-N-[(5-methyl-4-phenyl-1H-imidazol-2-yl)methyl]-2-(morpholin-4-yl)pyrazolo[1,5-a][1,3,5]triazin-4-amine] | – | –
25.7 nM | 115 | 28.5 nM | – | CC(C)c1cnn2c(NCc3ncc(-c4ccccc4)[nH]3)nc(N3CCOCC3)nc12 [Example 30, 2-(morpholin-4-yl)-N-[(5-phenyl-1H-imidazol-2-yl)methyl]-8-(propan-2-yl)pyrazolo[1,5-a][1,3,5]triazin-4-amine] | – | –
7.21 nM | 2565 | – | – | Cc1ccnc2[nH]c(CNc3nc(N4CCN(C)CC4)nc4c(C(C)C)cnn34)nc12 [Example 32, N-[(7-methyl-3H-imidazo[4,5-b]pyridin-2-yl)methyl]-2-(4-methylpiperazin-1-yl)-8-(propan-2-yl)pyrazolo[1,5-a][1,3,5]triazin-4-amine] | – | –
3.81 nM | 1751 | 9.75 nM | – | CN(c1nc(NCc2nc3ccccc3[nH]2)n2ncc(Br)c2n1)[C@H]1C[C@@H](O)C1 [Example 364, cis-3-[(4-{[(1H-benzimidazol-2-yl)methyl]amino}-8-bromopyrazolo[1,5-a][1,3,5]triazin-2-yl)(methyl)amino]cyclobutan-1-ol] | – | –
23.6 nM | 247 | – | 70.2 nM | CN(c1nc(NCc2nc3ccccc3[nH]2)n2ncc(Br)c2n1)[C@H]1C[C@H](O)C1 [Example 365, trans-3-[(4-{[(1H-benzimidazol-2-yl)methyl]amino}-8-bromopyrazolo[1,5-a][1,3,5]triazin-2-yl)(methyl)amino]cyclobutan-1-ol] | – | –
12.7 nM | 231 | – | 31.4 nM | CC[C@@H](CO)Nc1nc(NCc2nc3ccccc3[nH]2)n2ncc(Br)c2n1 [Example 367, (2S)-2-[(4-{[(1H-benzimidazol-2-yl)methyl]amino}-8-bromopyrazolo[1,5-a][1,3,5]triazin-2-yl)amino]butan-1-ol] | – | –
9.39 nM | 516 | – | 94.9 nM | CC[C@H](CO)Nc1nc(NCc2nc3ccccc3[nH]2)n2ncc(Br)c2n1 [Example 368, (2R)-2-[(4-{[(1H-benzimidazol-2-yl)methyl]amino}-8-bromopyrazolo[1,5-a][1,3,5]triazin-2-yl)amino]butan-1-ol] | – | –
20.6 nM | >970 | – | 140 nM | CC[C@H](COC)Nc1nc(NCc2nc3ccccc3[nH]2)n2ncc(Br)c2n1 [Example 369, N4-[(1H-benzimidazol-2-yl)methyl]-8-bromo-N2-[(2R)-1-methoxybutan-2-yl]pyrazolo[1,5-a][1,3,5]triazine-2,4-diamine] | – | –
58.1 nM | 79 | – | 68.6 nM | FC(F)(F)Oc1cccc2[nH]c(CNc3nc(N4CCOCC4)nc4c(Br)cnn34)nc12 [Example 375, 8-bromo-2-(morpholin-4-yl)-N-{[4-(trifluoromethoxy)-1H-benzimidazol-2-yl]methyl}pyrazolo[1,5-a][1,3,5]triazin-4-amine] | – | –
12.4 nM | >1615 | – | 36.8 nM | CN1CCN(c2nc(NCc3nc4c(OC(F)(F)F)cccc4[nH]3)n3ncc(Br)c3n2)CC1 [Example 376, 8-bromo-2-(4-methylpiperazin-1-yl)-N-{[4-(trifluoromethoxy)-1H-benzimidazol-2-yl]methyl}pyrazolo[1,5-a][1,3,5]triazin-4-amine] | – | –
20.2 nM | 252 | – | 79.3 nM | CN1CCN(c2nc(NCc3nc4cc(OC(F)(F)F)ccc4[nH]3)n3ncc(Br)c3n2)CC1 [Example 377, 8-bromo-2-(4-methylpiperazin-1-yl)-N-{[5-(trifluoromethoxy)-1H-benzimidazol-2-yl]methyl}pyrazolo[1,5-a][1,3,5]triazin-4-amine] | – | –
29.1 nM | 15 | – | 41.5 nM | CN(CC(C)(C)O)c1nc(NCc2nc3cc(OC(F)(F)F)ccc3[nH]2)n2ncc(Br)c2n1 [Example 378, 1-{[8-bromo-4-({[5-(trifluoromethoxy)-1H-benzimidazol-2-yl]methyl}amino)pyrazolo[1,5-a][1,3,5]triazin-2-yl](methyl)amino}-2-methylpropan-2-ol] | – | –
33.5 nM | >597 | – | 52.7 nM | CN1CCC(Oc2nc(NCc3nc4ccccc4[nH]3)n3ncc(Br)c3n2)CC1 [Example 389, N-[(1H-benzimidazol-2-yl)methyl]-8-bromo-2-[(1-methylpiperidin-4-yl)oxy]pyrazolo[1,5-a][1,3,5]triazin-4-amine] | – | –
19.2 nM | >1041 | – | 29.8 nM | CN1CCCN(c2nc(NCc3nc4ccccc4[nH]3)n3ncc(Br)c3n2)CC1 [Example 390, N-[(1H-benzimidazol-2-yl)methyl]-8-bromo-2-(4-methyl-1,4-diazepan-1-yl)pyrazolo[1,5-a][1,3,5]triazin-4-amine] | – | –

SMILES | DC50 [1] | (IC50 CDK12 high ATP) to (Degradation DC50 CDK12) ratio [1] | IC50 [2, 4] | IC50 ([3]; Homo sapiens, CAL-120, 96 h) | IC50 ([2]; Inhibition of BRCA1 mRNA expression in MDA-MB-231 cells) | IC50 [3]
Brc1cnn2c(NCc3nc4ccccc4[nH]3)nc(N3C[C@H]4CC[C@@H]3CN4)nc12 (single isomer, unassigned) [Example 335, N-[(1H-benzimidazol-2-yl)methyl]-8-bromo-2-{[1R or S-(1R*,4R*)]-2,5-diazabicyclo[2.2.2]octan-2-yl}pyrazolo[1,5-a][1,3,5]triazin-4-amine] | 8.34 nM | 798 | – | – | 12.7 nM | 4.24 nM
FC(F)(F)Oc1cccc2[nH]c(CNc3nc(N4C[C@H]5CC[C@@H](C4)N5)nc4c(Br)cnn34)nc12 [Example 381, 8-bromo-2-[(1R,5S)-3,8-diazabicyclo[3.2.1]octan-3-yl]-N-{[4-(trifluoromethoxy)-1H-benzimidazol-2-yl]methyl}pyrazolo[1,5-a][1,3,5]triazin-4-amine] | 22.2 nM | 266 | – | 30.8 nM | – | –
